Measured values as given in PubChem BioAssay AID1963827 (Molecular Pharmacology Branch, DTP, NCI, 2024).

Tested on: 994946-033-R-J1-PDC complex spheroid viability
Assay: Anticancer human tumor 994946-033-R-J1-PDC patient-derived melanoma cell line growth inhibition [POLQ]
Details: for IC50: curve of first compound; for viability, T/C: stronger effect = lower value
Procedure: Multicellular complex tumor spheroid response to Polymerase (POL) inhibitors (novobiocin, ART-558, RP6685) in combination with a variety of drugs and investigational agents in selected tumor cell lines
The POL inhibitors (novobiocin, ART-558, and RP6685) were evaluated both individually and in combination with standard of care and investigational anticancer small molecules within a complex spheroid model of solid tumors. . Complex spheroids include a stromal component modeled by human endothelial cells (HUVEC) and fibroblasts modeled by human mesenchymal stem cells (MSCs). The concentration ranges selected for each drug and investigational agent were based upon clinically achievable concentrations if the clinical Cmax of the agent was known.
Compounds. The drugs and investigational agents: novobiocin (NSC847541), ART-558 (NSC835418), RP-6685 (NSC848927), peposertib (NSC802822), ceralasertib (NSC780249), elimusertib (NSC800525), camonsertib (NSC841442), AZD-1390 (NSC803789), olaparib (NSC753686), talazoparib (NSC767125), rucaparib (NSC756644), sotorasib (NSC818433), MRTX-1133 (NSC836407), SN-38 (NSC673596), topotecan (NSC609699), epotoside (NSC141540), doxorubicin (NSC123127), gemcitabine (NSC613327), 5-fluorouracil (NSC19893), paclitaxel (NSC125973), vemurafenib (NSC761431), MSA-2 (NSC828583), SN-011 (NSC837082), adavosertib (NSC754352), prexasertib (NSC758257), carboplatin (NSC241240) and oxaliplatin (NSC266046), were obtained from the National Cancer Institute (NCI) Developmental Therapeutics Program Chemical Repository (21). The FDA-approved anticancer drug set is available from the Developmental Therapeutics Program at https://dtp.cancer.gov/organization/dscb/obtaining/. […] The stock solutions were prepared in dimethyl sulfoxide (DMSO, Sigma-Aldrich, St. Louis, MO, cat. D2650), except for the platinum compounds which were prepared in saline (Quality Biological, Gaithersburg, MD, cat. 114-055-101), at 800-fold the tested concentration and stored at -70 degrees C prior to their use. All drugs and investigational agents were tested over a range starting from a high concentration at or near the clinical Cmax and decreasing in half-log increments. If the clinical Cmax for an agent had not been determined, the highest concentration tested was 10 microM, except for SN-38, which was tested at a high concentration of 1 microM.
Cell Culture. All cells were maintained in an incubator at 37 degrees C and 5% CO2 with 95% humidity. The PDC lines were cultured according to standard operating procedures established by the NCI PDMR (https://pdmr.cancer.gov). Table 3 of the manuscript, lists the cell lines along with the number of the three cell types plated to form the mct-spheroids and media for tumor cell growth. After thawing, all PDC lines, except 997537-175-T-J1-PDC and 415267-285-R-J2-PDC, were cultured in Matrigel-coated flasks prepared with a working solution of 1X Ham's F-12 nutrient mix, without supplementation (Thermo Fisher Scientific, cat. 11765054), 100 U/mL penicillin-streptomycin (Thermo Fisher Scientific, cat. 15140122), and 2.5% Matrigel (Corning Inc., Corning, NY, cat. 354248) for the first three passages. The two PDC lines 997537-175-T-J1-PDC and 415267-285-R-J2-PDC were cultured on uncoated flasks. The 857933-349-R-J2-PDC line was cultured in 6C/Colon 1B media containing advanced DMEM/F-12 (Thermo Fisher Scientific, cat. 12634028), 10 mM HEPES (Thermo Fisher Scientific, cat. 15630080), 1X GlutaMAX supplement (Thermo Fisher Scientific, cat. 35050061), 0.1 mg/mL primocin (InvivoGen, San Diego, CA, cat. ant-pm-2), 10% defined fetal bovine serum, heat inactivated (HyClone Laboratories Inc., Logan, UT, cat. SH30070.03HI), 50% L-WRN conditioned media (ATCC, cat. CRL-3276), 1.25 mM N-Acetyl-L-cysteine (Sigma-Aldrich, cat. A9165), 10 mM nicotinamide (Sigma-Aldrich, cat. N0636), 1X B-27 supplement (Thermo Fisher Scientific, cat. 17504044), 1X N-2 supplement (Thermo Fisher Scientific, cat. […]

[1] = second compound 0.0316 µM, first compound 0.0316 µM
[2] = second compound 0.0316 µM, first compound 0.1 µM
[3] = second compound 0.0316 µM, first compound 0.316 µM
[4] = second compound 0.0316 µM, first compound 1 µM
[5] = second compound 0.0316 µM, first compound 3.16 µM
[6] = second compound 0.0316 µM, first compound 10 µM
[7] = second compound 0.1 µM, first compound 0.0316 µM
[8] = second compound 0.1 µM, first compound 0.1 µM
[9] = second compound 0.1 µM, first compound 0.316 µM
[10] = second compound 0.1 µM, first compound 1 µM
[11] = second compound 0.1 µM, first compound 3.16 µM
[12] = second compound 0.1 µM, first compound 10 µM
[13] = second compound 0.316 µM, first compound 0.0316 µM
[14] = second compound 0.316 µM, first compound 0.1 µM
[15] = second compound 0.316 µM, first compound 0.316 µM
[16] = second compound 0.316 µM, first compound 1 µM
[17] = second compound 0.316 µM, first compound 3.16 µM
[18] = second compound 0.316 µM, first compound 10 µM
[19] = second compound 1 µM, first compound 0.0316 µM
[20] = second compound 1 µM, first compound 0.1 µM
[21] = second compound 1 µM, first compound 0.316 µM
[22] = second compound 1 µM, first compound 1 µM
[23] = second compound 1 µM, first compound 3.16 µM
[24] = second compound 1 µM, first compound 10 µM
[25] = second compound 3.16 µM, first compound 0.0316 µM
[26] = second compound 3.16 µM, first compound 0.1 µM
[27] = second compound 3.16 µM, first compound 0.316 µM
[28] = second compound 3.16 µM, first compound 1 µM
[29] = second compound 3.16 µM, first compound 3.16 µM
[30] = second compound 3.16 µM, first compound 10 µM
[31] = second compound 10 µM, first compound 0.0316 µM
[32] = second compound 10 µM, first compound 0.1 µM
[33] = second compound 10 µM, first compound 0.316 µM
[34] = second compound 10 µM, first compound 1 µM
[35] = second compound 10 µM, first compound 3.16 µM
[36] = second compound 10 µM, first compound 10 µM
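Further: spheroids exposed to drugs for 7 days.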
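Wherever viability, T/C is given: 100% = DMSO vehicle treated spheroids.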

C=CC(=O)N1CCN(c2nc(=O)n(-c3c(C)ccnc3C(C)C)c3nc(-c4c(O)cccc4F)c(F)cc23)C(C)C1 (centres undefined) + Nc1ccc(C#CCN(C(=O)Cc2ncc(C(F)(F)F)cc2C(F)(F)F)c2ccc(F)cc2)nn1 gave an IC50 (second compound 0.0316 µM) of over 10 µM, an IC50 (second compound 0.1 µM) of over 10 µM and an IC50 (second compound 0.316 µM) of over 10 µM. For the same molecule, the IC50 (second compound 1 µM) was over 10 µM, the IC50 (second compound 3.16 µM) was over 10 µM and the IC50 (second compound 10 µM) was over 10 µM. For the same molecule, the viability, T/C [1] was 92.1%, the viability, T/C [2] was 94.9% and the viability, T/C [3] was 73.3%. For the same molecule, the viability, T/C [4] was 119%, the viability, T/C [5] was 130% and the viability, T/C [6] was 86.9%. The viability, T/C [7] was 102%, the viability, T/C [8] was 108% and the viability, T/C [9] was 75.2%. For the same molecule, the viability, T/C [10] was 119%, the viability, T/C [11] was 74.6% and the viability, T/C [12] was 70.7%. For the same molecule, the viability, T/C [13] was 104%, the viability, T/C [14] was 52.8% and the viability, T/C [15] was 112%. The viability, T/C [16] was 110%, the viability, T/C [17] was 103% and the viability, T/C [18] was 73.7%. The viability, T/C [19] was 94.2%, the viability, T/C [20] was 125% and the viability, T/C [21] was 108%. The viability, T/C [22] was 102%, the viability, T/C [23] was 130% and the viability, T/C [24] was 122%. The viability, T/C [25] was 80.7%, the viability, T/C [26] was 112% and the viability, T/C [27] was 83.8%. For the same molecule, the viability, T/C [28] was 119%, the viability, T/C [29] was 118% and the viability, T/C [30] was 98.4%. It also gave a viability, T/C [31] of 110%, a viability, T/C [32] of 117% and a viability, T/C [33] of 110%. The viability, T/C [34] was 105%, the viability, T/C [35] was 120% and the viability, T/C [36] was 116%.

COc1cc2cc(C(=O)CCC(=O)O)sc2cc1OC + Nc1ccc(C#CCN(C(=O)Cc2ncc(C(F)(F)F)cc2C(F)(F)F)c2ccc(F)cc2)nn1 showed an IC50 (second compound 0.0316 µM) of over 10 µM, an IC50 (second compound 0.1 µM) of over 10 µM and an IC50 (second compound 0.316 µM) of over 10 µM. It also gave an IC50 (second compound 1 µM) of over 10 µM, an IC50 (second compound 3.16 µM) of over 10 µM and an IC50 (second compound 10 µM) of over 10 µM. It also gave a viability, T/C [1] of 81.7%, a viability, T/C [2] of 99.5% and a viability, T/C [3] of 92.4%. The viability, T/C [4] was 83.2%, the viability, T/C [5] was 86.7% and the viability, T/C [6] was 67.9%. It also gave a viability, T/C [7] of 126%, a viability, T/C [8] of 101% and a viability, T/C [9] of 102%. For the same molecule, the viability, T/C [10] was 92.1%, the viability, T/C [11] was 87.2% and the viability, T/C [12] was 87.1%. It also gave a viability, T/C [13] of 111%, a viability, T/C [14] of 86% and a viability, T/C [15] of 87.6%. For the same molecule, the viability, T/C [16] was 109%, the viability, T/C [17] was 72.3% and the viability, T/C [18] was 96%. The viability, T/C [19] was 93.5%, the viability, T/C [20] was 98% and the viability, T/C [21] was 80.1%. It also gave a viability, T/C [22] of 79.4%, a viability, T/C [23] of 88.9% and a viability, T/C [24] of 95.8%. For the same molecule, the viability, T/C [25] was 116%, the viability, T/C [26] was 75.5% and the viability, T/C [27] was 111%. The viability, T/C [28] was 96.3%, the viability, T/C [29] was 94.9% and the viability, T/C [30] was 66.8%. For the same molecule, the viability, T/C [31] was 80.5%, the viability, T/C [32] was 81.9% and the viability, T/C [33] was 90.7%. For the same molecule, the viability, T/C [34] was 91.8%, the viability, T/C [35] was 115% and the viability, T/C [36] was 78.8%.
